Measurements reported in patent US11660354B2, “Inhibitor-functionalized ultrasmall nanoparticles and methods thereof” (Memorial Sloan Kettering Cancer Center, priority 2016, dated 2023).
Where two headings read alike, the source gives them in different places. Square brackets hold non-standard residues; d marks the D form. Sta = CC(C)C[C@H](N)[C@@H](O)CC(=O)O; Ahx = NCCCCCC(=O)O

Columns and labels:
[1] = system: PC lesion and metastatic LNs; experiment: Clinical PET with ^68Ga-RM2 and ^68Ga-PSMA-11 in prostate cancer patients; format: in vivo; details: patient with biochemical recurrence of PC
Description: FIGS. 20A-20B show a patient with biochemical recurrence of PC imaged with PSMA ligand ^68Ga-PSMA-11 and GRPr ligand ^68Ga-RM2. ^68Ga-PSMA-11 scan acquired 4 weeks after the ^68Ga-RM2 scan. Retroperitoneal LN metastases are better visualized on the GRPr scan than on the PSMA scan.

[2] = system: PC3 cells; experiment: Radiolabeled particle cell binding and internalization, PC3 cells; format: cell-based
Protocol: (§1) Blocking studies show specific uptake.
(§2) PSMAi-(^64Cu)NOTA-C′ dots and GRP-(^177Lu)DOTA-C′ dots were examined for cell binding with LNCaP and PC3 cells (FIGS. 11A-11C). Cells were incubated with 100,000 CPM of PD10 purified radiolabeled C′ dots. PMPA and bombesin were used for blocking PSMAi and GRP radiolabeled C′ dots. After 3 PBS washes, the membrane surface-bound fraction was removed with 40 mM NaOAc (pH=4.5, 0.9% NaCl, 0.2% BSA), after which the cells were dissolved in NaOH to obtain internalized counts.

[3] = format: in vitro ADME; details: serum
Protocol: PSMAi-NOTA-C′ dots (21 μmol) were radiolabeled with ^64Cu or ^177Lu (210 pmol) in NH4Ac buffer pH 5.5 at 70° C. for 20 min. The average radiolabeling yields were 98.6% and 99.3% radiochemical purities of 98% and 99.9%. Stabilities of the radiolabeled particle complexes were examined in water, saline, and serum (Table 1).
In the final step, PSMA and GRPr targeted C′ dots can be radiolabeled with ^64Cu and ^67Ga at various concentrations (˜0.3-300 nmol) in acetate buffer (pH 5.5) for 30 min and at 70° C. to obtain PSMAi-(^64Cu)NOTA-C′ dots and GRP-(^67Ga)DOTA-C′ dots. For ^89Zr labeling, as-synthesized PSMAi-DFO-C′ dot can be incubated with ^89Zr-oxalate at 37° C. for 30 min (pH 7-8). Radiolabeled PSMA-targeting C′ dots and GRPr-targeting C′ dots can be purified using PD-10 (G-25) size exclusion chromatography. For radiolabeling experiments, specific radiolabeling parameters can be determined for optimal radiolabeling efficiencies and high specific activities. Labeling can begin with the conditions shown to produce the highest specific activity. Quality control includes ITLC, HPLC, and cell-based receptor binding bioassays. Stability of radiolabeled C′ dots can be determined in H2O, PBS at 25° C. and mouse and human serum at 37° C.

[4] = system: TRAMP-C2 cell line; experiment: Binding of radiolabeled C′ dots to the TRAMP-C2 cell line; format: cell-based, mouse
Description: The advantages of the TRAMP model are the development of disease that mirrors human pathology in an immune competent mouse, coupled with the formation of LN and bone metastases. Disadvantages are that the biology/physiology of mouse prostate is not the same as the human organ. For example, the mouse prostate is not a single organ, as in human, but has 4 lobes, different from the single organ human prostate. The advantage of the TRAMP model is the ability to image metastatic disease and nodal metastases with PSMA- and GRPr-targeting C′ dots using PET and fluorescence-based multiplexing. Binding studies of PSMAi-(^67Ga)NOTA-C′ dots and GRP-(^177Lu)DOTA-C′ dots to the TRAMP-C2 cell line were examined (FIG. 17). The TRAMP-C2 cell line was derived from TRAMP prostate tumors. Both the PSMAi-(^67Ga)NOTA-C′ dots and GRP-(^177Lu)DOTA-C′ dots bound the TRAMP-C2 cell line. […] This model enables proof-of-concept studies to be conducted for multiplexed detection of nodal metastases using a cocktail of PSMAi-PEG-Cy5.5-C′ dots and GRP-PEG-CW800-C′ dots.

[5] = system: LNCaP cells; experiment: Radiolabeled particle cell binding and internalization, LNCaP cells; format: cell-based
Protocol: as §1, §2

Row | Compound | normal organ uptake [1] | cell binding, uptake and internalization [2] | binding in the presence of bombesin ([2]; blocking with bombesin) | percent radiolabeled C′ dot stability ([3]; human, 1 h) [%] | percent radiolabeled C′ dot stability ([3]; human, 4 h) [%] | percent radiolabeled C′ dot stability ([3]; human, 24 h) [%] | percent radiolabeled C′ dot stability ([3]; mouse, 1 h) [%] | percent radiolabeled C′ dot stability ([3]; mouse, 4 h) [%] | percent radiolabeled C′ dot stability ([3]; mouse, 24 h) [%] | binding to TRAMP-C2 cell line with RM2 peptide ([4]; addition of an excess of GRPr targeting RM2 peptide) | binding to TRAMP-C2 cell line ([4]; alone) | cell binding, uptake and internalization [5]
1 | O=C(O)CCc1ccc(O)c(CN(CCN(CC(=O)O)Cc2cc(CCC(=O)NCCCCCC(=O)NCCCC[C@H](NC(=O)N[C@@H](CCC(=O)O)C(=O)O)C(=O)O)ccc2O)CC(=O)O)c1 (68Ga complex, metal not drawn) [PSMA-11] | very high RES and renal uptake |  |  |  |  |  |  |  |  |  |  | 
2 | GRP-(^177Lu)DOTA-C′ dots: GRP antagonist-DOTA peptide-functionalized C′ dots radiolabeled with ^177Lu ({Ac-Cys-Ahx-Ahx-K(DOTA)-4‑amino‑1‑carboxymethyl‑piperidine}-HQWAVGH[Sta]L-NH2; also: Cys thiol bound to maleimide-PEG-silane on silica nanoparticle, DOTA labelled with 177Lu) |  | bound PC3 cells, but were not efficiently internalized | blocked | 99.9 | 99.9 | 99.8 | 99.9 | 99.8 | 98.6 | significantly reduced | bound | low levels of binding
